According to patent US20260365663A1, “EMOPAMIL-BINDING PROTEIN INHIBITORS AND USES THEREOF” (BIOGEN MA INC., priority 2022, published 2026):

target: T1, EBP (Homo sapiens, UniProt Q15125); assay: EBP Functional Assay (EBP immunoaffinity LC-MS assay); type: biochemical; conditions: not given
T1 construct: HEK293T cells were utilized as the source of EBP enzyme; endogenous in cells; host or cells: HEK293T
Procedure: The EBP immunoaffinity (IA) LC-MS assay measures the potency of small molecule inhibitors of EBP by quantifying their concentration-dependent changes in the enzyme's substrate and product using liquid chromatography atmospheric pressure chemical ionization multiple reaction monitoring mass spectrometry (LC-APCI MRM MS). HEK293T cells were utilized as the source of EBP enzyme. The enzyme was incubated with the small molecule inhibitors at variable concentrations for 30 min. Deuterated form of EBP substrate, zymosterol-d5 (Avanti Polar Lipids, Cat #700068P-1 mg), was then added and the plate was incubated at 37 °C for 4 h. Finally, the sterol isomers were extracted and injected to LC-APCI MRM MS. MRM transition used for the quantification for both zymosterol and dihydrolathosterol (substrate and product of EBP enzymatic reaction, respectively) is 372.3-203.2, CE 30 and DP 80 in positive ion mode. Percent conversion of the zymosterol-d5 to dehydrolathosterol-d5 was used to derive IC50 curves. Tasin-1 (1′-[(4-Methoxyphenyl)sulfonyl]-4-methyl-1,4′-bipiperidine, CAS 792927-06-1) was used as the reference small molecule inhibitor.
Percent conversion versus the compound concentration data were fit to the following 4-parameter logistic model to generate IC50 curves: […]

T1 sequence (Q15125 whole entry): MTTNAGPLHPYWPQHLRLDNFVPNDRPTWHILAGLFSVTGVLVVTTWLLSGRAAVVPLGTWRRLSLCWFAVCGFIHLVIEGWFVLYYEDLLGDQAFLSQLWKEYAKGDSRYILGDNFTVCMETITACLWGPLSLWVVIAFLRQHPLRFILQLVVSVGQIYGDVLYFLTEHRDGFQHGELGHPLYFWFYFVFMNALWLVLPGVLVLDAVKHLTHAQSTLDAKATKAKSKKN

| IC50 [nM] | SMILES |
| --- | --- |
| 100 to 500 | Cc1nn(C)c(S(=O)(=O)N2CC3(CCC(N4CCOCC4)C3)C2)c1C(F)F (stereo not shown) [Example 38, 4-(2-((4-(Difluoromethyl)-1,3-dimethyl-1H-pyrazol-5-yl)sulfonyl)-2-azaspiro[3.4]octan-6-yl)morpholine] |
| 500 to 3000 | COc1ncc(C)cc1S(=O)(=O)N1CC2(CC(N3CC4(COC4)C3)CO2)C1 (stereo not shown) [Example 22, 2-((2-Methoxy-5-methylpyridin-3-yl)sulfonyl)-7-(2-oxa-6-azaspiro[3.3]heptan-6-yl)-5-oxa-2-azaspiro[3.4]octane] |
| 100 to 500 | Cc1cc(C(F)(F)F)ncc1S(=O)(=O)N1CC2(CCC(N3CCOCC3)C2)C1 (stereo not shown) [Example 41, 4-(2-((4-Methyl-6-(trifluoromethyl)pyridin-3-yl)sulfonyl)-2-azaspiro[3.4]octan-6-yl)morpholine] |
| < 100 | Cc1nc(Cl)ccc1S(=O)(=O)N1CC2(CCC(N3CCOCC3)C2)C1 (stereo not shown) [Example 42, 4-(2-((6-Chloro-2-methylpyridin-3-yl)sulfonyl)-2-azaspiro[3.4]octan-6-yl)morpholine] |

same assay, conditions: HEK293T cells as source of EBP enzyme; zymosterol-d5 substrate; inhibitor 30 min, then 37 °C for 4 h; percent conversion to dehydrolathosterol-d5 by LC-APCI MRM MS; read-out: EBP Functional Assay

| IC50 [nM] | SMILES |
| --- | --- |
| < 100 | Cc1nc(C(F)(F)F)ccc1S(=O)(=O)N1CC2(CC[C@@H](N3CCOCC3)C2)C1 (single isomer, unassigned) [Example 60] |
| 100 to 500 | COc1cc(S(=O)(=O)N2CC3(CCC(N4CCOCC4)C3)C2)n(C)n1 (stereo not shown) [Example 34, 4-(2-((3-Methoxy-1-methyl-1H-pyrazol-5-yl)sulfonyl)-2-azaspiro[3.4]octan-6-yl)morpholine] |
| 500 to 3000 | Cn1nc(C(F)(F)F)cc1S(=O)(=O)N1CC2(C[C@@H](N3CCOCC3)CO2)C1 [Example 57, (R)-2-((1-methyl-3-(trifluoromethyl)-1H-pyrazol-5-yl)sulfonyl)-7-morpholino-5-oxa-2-azaspiro[3.4]octane] |
| 100 to 500 | Cc1nc(C(C)(F)F)ccc1S(=O)(=O)N1CC2(CC(N(C)CC3CCOCC3)C2)C1 [Example 75, 2-((6-(1,1-difluoroethyl)-2-methylpyridin-3-yl)sulfonyl)-N-methyl-N-((tetrahydro-2H-pyran-4-yl)methyl)-2-azaspiro[3.3]heptan-6-amine] |

The next lines start with the compound.

| SMILES | IC50 [nM] |
| --- | --- |
| Cc1nc(C(F)(F)F)ncc1S(=O)(=O)N1CC2(CC(N(C)CC3CCOCC3)C2)C1 [Example 83, N-methyl-2-((4-methyl-2-(trifluoromethyl)pyrimidin-5-yl)sulfonyl)-N-((tetrahydro-2H-pyran-4-yl)methyl)-2-azaspiro[3.3]heptan-6-amine] | 100 to 500 |
| Cc1nc(C(F)(F)F)ccc1S(=O)(=O)N1CC2(CC(NCC3(C)COC3)C2)C1 [Example 9, 2-((2-Methyl-6-(trifluoromethyl)pyridin-3-yl)sulfonyl)-N-((3-methyloxetan-3-yl)methyl)-2-azaspiro[3.3]heptan-6-amine] | < 100 |
| Cc1nc(C(F)(F)F)ncc1S(=O)(=O)N1CC2(CC(NC3CC4(COC4)C3)C2)C1 (stereo not shown) [Example 78, 2-((4-methyl-2-(trifluoromethyl)pyrimidin-5-yl)sulfonyl)-N-(2-oxaspiro[3.3]heptan-6-yl)-2-azaspiro[3.3]heptan-6-amine] | 100 to 500 |
| Cc1nc(C(F)(F)F)ncc1S(=O)(=O)N1CC2(CC(N3CC4(CCO4)C3)C2)C1 [Example 16, 6-(2-((4-Methyl-2-(trifluoromethyl)pyrimidin-5-yl)sulfonyl)-2-azaspiro[3.3]heptan-6-yl)-1-oxa-6-azaspiro[3.3]heptane] | 500 to 3000 |
| Cn1nc(C(F)(F)F)cc1S(=O)(=O)N1CC2(CC(NCC3COC3)C2)C1 [Example 11, 2-((1-Methyl-3-(trifluoromethyl)-1H-pyrazol-5-yl)sulfonyl)-N-(oxetan-3-ylmethyl)-2-azaspiro[3.3]heptan-6-amine] | 100 to 500 |
